Measurements taken from ChEMBL document CHEMBL4765476, “MCC950, a NLRP3 inhibitor, ameliorates lipopolysaccharide-induced lung inflammation in mice” (Bioorg Med Chem, 2021).
The source made the active and inactive calls. The calls are words filed in the database; no cut-off is given here.

Legend:
Mus musculus [1] = organism: Mus musculus; settings: ICR, dose 10.0 mg/kg, time 42.0 hrs
Mus musculus [2] = assay: Antiinflammatory activity in ICR mouse assessed as reduction in LPS-induced macrophages level in BALF at 10 mg/kg, INH administered 18 hrs before LPS-stimulation and measured after 24 hrs by FACS analysis relative to control; format: functional; settings: time 42 hrs
Mus musculus [3] = assay: Antiinflammatory activity in ICR mouse assessed as reduction in LPS-induced lymphocyte level in BALF at 10 mg/kg, ip administered 18 hrs before LPS-stimulation and measured after 24 hrs by FACS analysis relative to control; format: functional; settings: time 42 hrs
Mus musculus [4] = organism: Mus musculus; settings: ICR, dose 10-50 mg/kg, time 42.0 hrs
Mus musculus [5] = assay: Antiinflammatory activity in ICR mouse assessed as reduction in LPS-induced lymphocyte level in BALF at 50 mg/kg, ip administered 18 hrs before LPS-stimulation and measured after 24 hrs by FACS analysis relative to control; format: functional; settings: time 42 hrs
Mus musculus [6] = assay: Antiinflammatory activity in ICR mouse assessed as reduction in LPS-induced neutrophil infiltration in lungs at 50 mg/kg, INH administered 18 hrs before LPS-stimulation and measured after 24 hrs by H and E staining based imaging analysis relative to control; format: functional; settings: time 42 hrs
Mus musculus [7] = assay: Antiinflammatory activity in ICR mouse assessed as reduction in LPS-induced neutrophils in BALF at 10 mg/kg, ip administered 18 hrs before LPS-stimulation and measured after 24 hrs by FACS analysis relative to control; format: functional; settings: time 42 hrs
Mus musculus [8] = organism: Mus musculus; settings: ICR, dose 10-50 mg/kg, time 42.0 hrs; remark: listed apart in the source
Mus musculus [9] = assay: Antiinflammatory activity in ICR mouse assessed as reduction in LPS-induced neutrophil infiltration in lungs at 50 mg/kg, ip administered 18 hrs before LPS-stimulation and measured after 24 hrs by H and E staining based imaging analysis relative to control; format: functional; settings: time 42 hrs
Mus musculus [10] = organism: Mus musculus; settings: ICR, dose 10-50 mg/kg, time 42.0 hrs; remark: listed apart in the source
Mus musculus [11] = organism: Mus musculus; settings: ICR, dose 10-50 mg/kg, time 42.0 hrs; remark: listed apart in the source
Mus musculus [12] = assay: Antiinflammatory activity in ICR mouse assessed as reduction in LPS-induced macrophage level in BALF at 50 mg/kg, ip administered 18 hrs before LPS-stimulation and measured after 24 hrs by FACS analysis relative to control; format: functional; settings: time 42 hrs
Mus musculus [13] = organism: Mus musculus; settings: ICR, dose 10-50 mg/kg, time 42.0 hrs; remark: listed apart in the source
Mus musculus [14] = organism: Mus musculus; settings: ICR, dose 10-50 mg/kg, time 42.0 hrs; remark: listed apart in the source
Mus musculus [15] = organism: Mus musculus; settings: ICR, dose 10-50 mg/kg, time 42.0 hrs; remark: listed apart in the source
Mus musculus [16] = organism: Mus musculus; settings: ICR, dose 10-50 mg/kg, time 42.0 hrs; remark: listed apart in the source
Mus musculus [17] = assay: Antiinflammatory activity in ICR mouse assessed as reduction in LPS-induced macrophages level in BALF at 50 mg/kg, INH administered 18 hrs before LPS-stimulation and measured after 24 hrs by FACS analysis relative to control; format: functional; settings: time 42 hrs
Mus musculus [18] = organism: Mus musculus; settings: ICR, dose 10-50 mg/kg, time 42.0 hrs; remark: listed apart in the source
Mus musculus [19] = assay: Antiinflammatory activity in ICR mouse assessed as reduction in LPS-induced neutrophil infiltration in lungs at 10 mg/kg, ip administered 18 hrs before LPS-stimulation and measured after 24 hrs by H and E staining based imaging analysis relative to control; format: functional; settings: time 42 hrs
Mus musculus [20] = assay: Antiinflammatory activity in ICR mouse assessed as reduction in LPS-induced neutrophils in BALF at 10 mg/kg, INH administered 18 hrs before LPS-stimulation and measured after 24 hrs by FACS analysis relative to control; format: functional; settings: time 42 hrs
Mus musculus [21] = assay: Antiinflammatory activity in ICR mouse assessed as reduction in LPS-induced neutrophils in BALF at 50 mg/kg, ip administered 18 hrs before LPS-stimulation and measured after 24 hrs by FACS analysis relative to control; format: functional; settings: time 42 hrs
Mus musculus [22] = organism: Mus musculus; settings: ICR, dose 10-50 mg/kg, time 42.0 hrs; remark: listed apart in the source
Mus musculus [23] = assay: Antiinflammatory activity in ICR mouse assessed as reduction in LPS-induced neutrophil infiltration in lungs at 10 mg/kg, INH administered 18 hrs before LPS-stimulation and measured after 24 hrs by H and E staining based imaging analysis relative to control; format: functional; settings: time 42 hrs
Mus musculus [24] = assay: Antiinflammatory activity in ICR mouse assessed as reduction in LPS-induced macrophage level in BALF at 10 mg/kg, ip administered 18 hrs before LPS-stimulation and measured after 24 hrs by FACS analysis relative to control; format: functional; settings: time 42 hrs
Mus musculus [25] = organism: Mus musculus; settings: ICR, dose 10-50 mg/kg, time 42.0 hrs; remark: listed apart in the source
Mus musculus [26] = organism: Mus musculus; settings: ICR, dose 10-50 mg/kg, time 42.0 hrs; remark: listed apart in the source
Mus musculus [27] = assay: Antiinflammatory activity in ICR mouse assessed as reduction in LPS-induced neutrophils in BALF at 50 mg/kg, INH administered 18 hrs before LPS-stimulation and measured after 24 hrs by FACS analysis relative to control; format: functional; settings: time 42 hrs
Mus musculus [28] = organism: Mus musculus; settings: ICR, dose 10-50 mg/kg, time 42.0 hrs; remark: listed apart in the source
Mus musculus [29] = assay: Antiinflammatory activity in ICR mouse assessed as reduction in LPS-induced lymphocyte level in BALF at 10 mg/kg, INH administered 18 hrs before LPS-stimulation and measured after 24 hrs by FACS analysis relative to control; format: functional; settings: time 42 hrs
Mus musculus [30] = organism: Mus musculus; settings: ICR, dose 10-50 mg/kg, time 42.0 hrs; remark: listed apart in the source
Mus musculus [31] = organism: Mus musculus; settings: ICR, dose 10-50 mg/kg, time 42.0 hrs; remark: listed apart in the source
Mus musculus [32] = assay: Antiinflammatory activity in ICR mouse assessed as reduction in LPS-induced lymphocyte level in BALF at 50 mg/kg, INH administered 18 hrs before LPS-stimulation and measured after 24 hrs by FACS analysis relative to control; format: functional; settings: time 42 hrs
Mus musculus [33] = organism: Mus musculus; settings: ICR, dose 50.0 mg/kg, time 42.0 hrs

CC(C)(O)c1coc(S(=O)(=O)NC(=O)Nc2c3c(cc4c2CCC4)CCC3)c1
inhibition (Mus musculus [1]): inactive | inhibition in vivo at 10 mg/kg (Mus musculus [2]): 36.6% | inhibition in vivo at 10 mg/kg (Mus musculus [3]): 40.3% | inhibition (Mus musculus [4]): Active | inhibition in vivo at 50 mg/kg (Mus musculus [5]): 49.8% | inhibition in vivo at 50 mg/kg (Mus musculus [6]): 52.9% | inhibition in vivo at 10 mg/kg (Mus musculus [7]): 44.2% | inhibition (Mus musculus [8]): Active | inhibition in vivo at 50 mg/kg (Mus musculus [9]): 51.4% | inhibition (Mus musculus [10]): Active | inhibition (Mus musculus [11]): Active | inhibition in vivo at 50 mg/kg (Mus musculus [12]): 76.7% | inhibition (Mus musculus [13]): Active | inhibition (Mus musculus [14]): Active | inhibition (Mus musculus [15]): Active | inhibition (Mus musculus [16]): Active | inhibition in vivo at 50 mg/kg (Mus musculus [17]): 43.8% | inhibition (Mus musculus [18]): Active | inhibition in vivo at 10 mg/kg (Mus musculus [19]): 37.1% | inhibition in vivo at 10 mg/kg (Mus musculus [20]): 46.5% | inhibition in vivo at 50 mg/kg (Mus musculus [21]): 67.8% | inhibition (Mus musculus [22]): Active | inhibition in vivo at 10 mg/kg (Mus musculus [23]): 35.3% | inhibition in vivo at 10 mg/kg (Mus musculus [24]): 53.2% | inhibition (Mus musculus [25]): Active | inhibition (Mus musculus [26]): Active | inhibition in vivo at 50 mg/kg (Mus musculus [27]): 71.7% | inhibition (Mus musculus [28]): Active | inhibition in vivo at 10 mg/kg (Mus musculus [29]): 28.3% | inhibition (Mus musculus [30]): Active | inhibition (Mus musculus [31]): Active | inhibition in vivo at 50 mg/kg (Mus musculus [32]): 34.9% | inhibition (Mus musculus [33]): Active
